For four compounds, MIC99 results are on record in ChEMBL document CHEMBL2407022, “Advancement of Imidazo[1,2-a]pyridines with Improved Pharmacokinetics and Nanomolar Activity Against Mycobacterium tuberculosis” (ACS Med Chem Lett, 2013).

Molecules are shown by their SMILES. In brackets after ≈: the same amount, converted by molar mass. Bounds are passed on as bounds.

Holding throughout (format): functional
What all share (settings): 336 h

Experiment [1] has as its system Mycobacterium tuberculosis. Description: Antimycobacterial activity against isoniazid, rifampin, ethambutol, kanamycin and rifabutin-resistant Mycobacterium tuberculosis after 14 days.
Experiment [2] relates to Mycobacterium tuberculosis. As to the kind of experiment: Antimycobacterial activity against isoniazid, rifampin, ethambutol, streptomycin, kanamycin and ofloxacin-resistant Mycobacterium tuberculosis after 14 days.
Experiment [3] has as its system Mycobacterium tuberculosis. Description: Antimycobacterial activity against isoniazid, rifampin, ethambutol, kanamycin and ofloxacin-resistant Mycobacterium tuberculosis after 14 days.

The MIC99 is an inhibitory concentration at the 99% level, which refers to growth in some studies and to a panel of isolates in others. Read a high MIC99 as weaker potency. As for `Cc1ccn2c(C(=O)NCc3ncc(C(F)(F)F)cc3Cl)c(C)nc2c1`, the results for the MIC99 in experiment [1] and in experiment [2] were 13 µM (≈ 4.98 µg/mL) and 0.8 µM (≈ 0.306 µg/mL), respectively.
Turning to `O=[N+]([O-])c1cn2c(n1)OC[C@@H](OCc1ccc(OC(F)(F)F)cc1)C2` [PRETOMANID], the MIC99 in experiment [1] was 0.5 µM (≈ 0.18 µg/mL); in experiment [3] it was 0.2 µM (≈ 0.0719 µg/mL); in experiment [2], 0.9 µM (≈ 0.323 µg/mL).
On to `Cc1ccn2c(C(=O)NCc3ccc(Oc4ccc(F)cc4)cc3)c(C)nc2c1`, for which the MIC99 in experiment [1] is 0.8 µM (≈ 0.312 µg/mL); in experiment [3], below 0.03 µM; in experiment [2], below 0.03 µM.
As for `Cc1ccc2nc(C)c(C(=O)NCc3ccccc3)n2c1`, the MIC99 in experiment [1] was 2.3 µM (≈ 0.642 µg/mL); in experiment [3] it was below 0.04 µM; in experiment [2], below 0.04 µM.
